In US6270780A, “Cosmetic compositions containing resveratrol” (Chesebrough-Pond's USA Co., division of Conopco, priority 1998, dated 2001):
Where two headings read alike, the source gives them in different places.

Assays:
[1] = Cell viability of B16 cells by neutral red dye uptake; assay type: cell-based; settings: mouse, b16 f1 cells
Protocol: In order to ensure that melanin inhibition was not simply due to cell killing, cell viability was assessed by neutral red dye uptake. After the removal of media, 200 μL of pre-warmed medium containing 25 μg/ml neutral red dye was added to each well and incubated for 3 hours. Cells were washed 2× with PBS. The dye was extracted by adding […] of 50 H2O: 49 ethanol: 1 acetic acid and then gently shaken at room temperature for 20 minutes. The dye was quantified by reading the absorbance at 530 nm. Only viable cells are expected to take up the dye and the absorbance is directly proportional to the number of viable cells surviving the treatment.
(§1) For each treatment, the average of four replicate readings was calculated and expressed as percent of the average for the untreated control.

ZR75 cells = assay: 3H-thymidine incorporation (DNA synthesis) / proliferation of ZR75 cells, estrogen-like activity; assay type: cell-based, human
Text: The following test was employed to determine whether resveratrol has an estrogen-like activity:
The ZR75 cell line is a ductal breast carcinoma cell line, originally isolated from malignant mammary epithelium of a person (Engel et al., Human breast carcinoma cells in continuous culture: A review., Cancer Res., 38: 4327-4339, 1978). This cell line contains receptors for estrogen, progesterone and other steroid hormones, but responds through an increase in proliferation only to estrogen. The cell line contains high affinity estrogen-specific receptors. Therefore, this cell line is used for testing estrogen-like activity (Markiewicz et al., In vitro bioassays of non-steroidal phytoestrogens, J. Steroid Biochem. Molec. Biol., 45: 399-405, 1993)
Methodology Used for Determining the Rate of DNA Synthesis in Cells
The incorporation of ^3 H-thymidine by cultured cells was used as an assay of cell proliferation (both for ZR75 cells and for keratinocytes). Thymidine is one of four deoxynucleosides which are the monomeric units of DNA. Prior to cell division of a somatic cell, the complete genome of the cell undergoing cell division is replicated. This involves large scale DNA synthesis by the cell and enables both daughter cells to receive identical copies of the genetic material. When ^3 H-thymidine is included in the culture media of cells which are synthesizing DNA in preparation for cell division then the labeled thymidine is incorporated into the newly synthesized DNA. The extent of incorporation of ^3 H-thymidine into a population of cells is proportional to the rate of DNA synthesis by this population of cells and therefore an indication of their cellular proliferation.
ZR75 cells (from American Type Culture Collection, Rockville, Md.) were grown in RPMI1640 media (from Gibco Life Technologies) with 10% fetal bovine serum (FBS) , 100 units penicillin per ml and 100 units of streptomycin per ml. All incubations were performed at 37° C. in 5% CO2. […] The cells were seeded at a density of one million per 75 cm2 flask. For the experiment, the cells were seeded in 24 well plates at 100,000 cells per ml per well.
After growing for 24 hours, the media was removed, the cells were washed with PBS (phosphate buffered saline, 0.01 M sodium phosphate, 0.138 M sodium chloride, 0.0027 M potassium chloride, pH 7.4) and 1 ml of RPMI 1640 without serum (but with streptomycin and penicillin) was added. Stock solutions of resveratrol in dimethyl sulfoxide (DMSO) and estradiol in water were prepared. […] After another 24 hours, one μCi of [methyl-3H] thymidine was added to each well. The media was removed after 24 hours. The cells were washed once in PBS, the PBS was removed completely and the cells were left on ice to incubate with 1 ml per well of 10% TCA (trichloroacetic acid) for 30 minutes. The plates were washed 3 times with 5% TCA to remove all traces of thymidine which wasn't incorporated into the cells. 500 μl of 0.1M sodium hydroxide was added to each well and the plates were incubated at room temperature for at least 30 minutes. 250 μl of each sample was transferred to scintillation vials and after adding 5 mL of counting fluid, the vials were counted for 5 minutes each on a setting for tritium. […] Values were expressed as mean of quadruplicate wells +/- standard deviation.

B16 F1 cells = assay: Melanin production by B16 cells; assay type: cell-based
Protocol: B16 F1 cells were purchased from ATCC (Rockville, Md.) Subconfluent B16 cells were seeded in 96 well microtiter plates at a density of 5000 cells/well and cultured overnight in DMEM (Life Technologies, NY) containing 10% Fetal Bovine Serum, 1% penicillin/streptomycin without phenol red) at 37° C. under 5% CO2. After 24 hours, the media was replaced with fresh media containing the treatments. Cells were incubated for 72 hours at which time melanin was visible in the control treatment. Next, the melanin containing media from each well was transferred to a clean 96 well plate and quantified by reading the absorbance at 530 nm using a microplate Spectrophotometer.
as §1
The lower the % melanin value (with a viability value of >50%), the better the skin lightening potential.

[2] = Homo sapiens, ZR75, read-out: DNA synthesis (% of Control), EXPT 1, control DMSO
[3] = Homo sapiens, ZR75, read-out: DNA synthesis (% of Control), EXPT 2, control DMSO

For `Oc1ccc(/C=C/c2cc(O)cc(O)c2)cc1` [Resveratrol, 3,4'5-stilbenetriol], the viability at 72 h, 10 µM ([1]; 10 μM) was 94.6%, the viability at 72 h, 25 µM ([1]; 25 μM) was 86.8% and the viability at 72 h, 50 µM ([1]; 50 μM) was 69.2%. For the same molecule, the viability at 72 h, 100 µM ([1]; 100 μM) was 1.8%, the activity at 0.5 µM (ZR75 cells; [2]) was 69.7 ± 10% and the activity at 1 µM (ZR75 cells; [2]) was 58.8 ± 9%. For the same molecule, the activity at 10 µM (ZR75 cells; [2]) was 208 ± 32.5%, the activity at 20 µM (ZR75 cells; [2]) was 135 ± 21.4% and the activity at 40 µM (ZR75 cells; Homo sapiens, ZR75, read-out: DNA synthesis (% of Control), EXPT 1, 40 μM, control DMSO) was 60.8 ± 26.4%. It also gave an activity at 50 µM (ZR75 cells; Homo sapiens, ZR75, read-out: DNA synthesis (% of Control), EXPT 1, 50 μM, control DMSO) of 4.1 ± 1.4%, an activity at 0.5 µM (ZR75 cells; [3]) of 56.8 ± 4.2% and an activity at 1 µM (ZR75 cells; [3]) of 60.5 ± 3.6%. It also gave an activity at 5 µM (ZR75 cells; Homo sapiens, ZR75, read-out: DNA synthesis (% of Control), EXPT 2, 5 μM, control DMSO) of 159 ± 4.1%, an activity at 10 µM (ZR75 cells; [3]) of 163 ± 13.7% and an activity at 15 µM (ZR75 cells; Homo sapiens, ZR75, read-out: DNA synthesis (% of Control), EXPT 2, 15 μM, control DMSO) of 119 ± 2.5%. The activity at 20 µM (ZR75 cells; [3]) was 68 ± 3.9%, the “proliferation of ZR 75 cells” value (ZR75 cells; concentration from 5 to 20 μM) was “increased proliferation of ZR 75 cells” and the activity at 10 µM (B16 F1 cells; Mus musculus, B16-F1, 10 μM, 72 hours) was 80%. For the same molecule, the activity at 25 µM (B16 F1 cells; Mus musculus, B16-F1, 25 μM, 72 hours) was 4%, the activity at 50 µM (B16 F1 cells; Mus musculus, B16-F1, 50 μM, 72 hours) was 3.9% and the activity at 100 µM (B16 F1 cells; Mus musculus, B16-F1, 100 μM, 72 hours) was 6.6%. For the same molecule, the “melanin production by skin cells” value (B16 F1 cells; all concentrations tested where viability was greater than 50%) was “inhibited melanin production by skin cells”.
